For assay [1], the target named is T1, Thymidylate synthase (Homo sapiens, UniProt P04818). The experiment in a line: Inhibition of human thymidylate synthase using N5,N10-methylene tetrahydrofolate at 50 uM by chromogenic assay.
Target sequence in this assay (P04818 2-313 limits assumed): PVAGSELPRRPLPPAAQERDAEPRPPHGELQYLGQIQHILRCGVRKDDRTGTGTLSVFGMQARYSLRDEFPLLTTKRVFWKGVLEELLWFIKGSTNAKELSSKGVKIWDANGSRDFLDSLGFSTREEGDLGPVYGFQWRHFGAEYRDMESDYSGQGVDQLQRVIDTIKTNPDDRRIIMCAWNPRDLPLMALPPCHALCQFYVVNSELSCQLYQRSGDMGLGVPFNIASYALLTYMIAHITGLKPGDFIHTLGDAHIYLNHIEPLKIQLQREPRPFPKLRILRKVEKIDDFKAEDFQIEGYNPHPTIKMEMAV
The nature of assay [2]: Inhibition of Escherichia coli thymidylate synthase using N5,N10-methylene tetrahydrofolate by chromogenic assay.
In assay [3] the target is T2, Thymidylate synthase (Enterococcus faecalis (strain ATCC 700802 / V583)) (UniProt Q834R3).
T2 sequence (whole entry): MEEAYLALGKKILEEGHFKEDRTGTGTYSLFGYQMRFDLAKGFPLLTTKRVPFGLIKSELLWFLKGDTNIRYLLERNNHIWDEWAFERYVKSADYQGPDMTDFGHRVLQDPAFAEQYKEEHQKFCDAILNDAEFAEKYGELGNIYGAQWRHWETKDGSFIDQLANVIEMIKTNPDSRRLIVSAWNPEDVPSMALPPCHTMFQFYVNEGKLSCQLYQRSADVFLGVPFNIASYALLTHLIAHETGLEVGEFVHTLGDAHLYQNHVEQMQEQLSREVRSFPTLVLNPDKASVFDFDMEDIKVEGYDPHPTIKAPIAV
The experiment in a line: Inhibition of Enterococcus faecalis thymidylate synthase using N5,N10-methylene tetrahydrofolate at 50 uM by chromogenic assay.

The target in assay [4] is T3, Thymidylate synthase (Enterococcus faecalis (strain ATCC 700802 / V583), UniProt Q834R3).
T3 sequence (Q834R3 whole entry): T2 sequence (whole entry)
In words: Inhibition of Enterococcus faecalis thymidylate synthase using N5,N10-methylene tetrahydrofolate by chromogenic assay.

In assay [5] the target is T4, Thymidylate synthase (Lactobacillus casei, UniProt P00469).
T4 sequence (P00469 whole entry): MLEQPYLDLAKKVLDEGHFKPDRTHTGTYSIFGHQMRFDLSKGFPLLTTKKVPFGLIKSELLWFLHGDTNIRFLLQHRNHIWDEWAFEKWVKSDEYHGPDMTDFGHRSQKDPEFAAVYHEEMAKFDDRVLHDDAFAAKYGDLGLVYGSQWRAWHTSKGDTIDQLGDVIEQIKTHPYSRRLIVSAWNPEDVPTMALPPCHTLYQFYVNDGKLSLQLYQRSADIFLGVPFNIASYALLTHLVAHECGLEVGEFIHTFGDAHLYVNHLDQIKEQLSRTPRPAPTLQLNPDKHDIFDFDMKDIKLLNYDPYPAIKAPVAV
The experiment in a line: Inhibition of Lactobacillus casei thymidylate synthase using N5,N10-methylene tetrahydrofolate by chromogenic assay. Also noted: species or system Lacticaseibacillus casei.

The target in assay [6] is T5, Thymidylate synthase (Lactobacillus casei) (UniProt P00469).
T5 sequence (whole entry): T4 sequence (P00469 whole entry)
In words: Inhibition of Lactobacillus casei thymidylate synthase using N5,N10-methylene tetrahydrofolate at 50 uM by chromogenic assay. Conditions: Lacticaseibacillus casei.

Assay [7] deals with T1, Thymidylate synthase.
Target sequence in this assay (P04818 whole entry): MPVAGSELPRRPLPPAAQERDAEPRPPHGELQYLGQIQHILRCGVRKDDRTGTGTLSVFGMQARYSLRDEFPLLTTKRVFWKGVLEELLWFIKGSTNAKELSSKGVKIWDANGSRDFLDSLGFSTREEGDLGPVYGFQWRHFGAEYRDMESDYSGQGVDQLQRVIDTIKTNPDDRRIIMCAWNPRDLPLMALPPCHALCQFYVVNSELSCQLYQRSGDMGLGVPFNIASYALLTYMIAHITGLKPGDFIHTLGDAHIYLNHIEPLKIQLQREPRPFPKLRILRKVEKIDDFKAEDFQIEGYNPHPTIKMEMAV
Description: Inhibition of human thymidylate synthase using N5,N10-methylene tetrahydrofolate by chromogenic assay

Active and inactive are the calls of the source. The calls are words filed in the database; no cut-off is given here.

For `CN1C(=O)c2cccc(CNCCP(=O)(O)O)c2C1=O`, the inhibition result (at Thymidylate synthase [1]; in assay [3]) was “inactive” throughout. Besides, affinity in assay [2] was put at a Ki of 14 µM.
Regarding `Cc1cccc2c1C(=O)N(c1nccs1)C2=O`, the inhibition result at Thymidylate synthase [1] was “inactive”. Also, the figures for the Ki at Thymidylate synthase [4] and on Thymidylate synthase [5] were 11 µM and 3 µM, respectively.
For `Cc1cccc2c1C(=O)OC2=O`, the inhibition entry (on Thymidylate synthase [1]; in assay [6]; in assay [3]) was “inactive” in each case. Further, the affinity in assay [2], expressed as Ki, was 49 µM.
In the case of `CN1C(=O)c2cccc(CBr)c2C1=O`, the inhibition result (on Thymidylate synthase [1]; in assay [3]) was “inactive” throughout. In addition, on Thymidylate synthase [5], the Ki (in general, a measure of affinity in units of concentration, obtained from inhibition or displacement) is 95 µM.
In the case of `Cc1cccc2c1C(=O)N(c1cc(-c3ccccc3)ccc1O)C2=O`, the values for the Ki (on Thymidylate synthase [4]; in assay [2]; at Thymidylate synthase [5]) were 2 µM, 3 µM and 3 µM, respectively.
In the case of `Cc1cccc2c1C(=O)N(c1ccc(C(F)(F)F)cc1)C2=O`, the inhibition result at Thymidylate synthase [1] is “inactive”. The inhibitory constant (Ki) at Thymidylate synthase [4] came out at 60 µM; in assay [2] it was 18 µM; on Thymidylate synthase [5], 14 µM.
With `Cc1cccc2c1C(=O)N(CCc1cccs1)C2=O`, the inhibition result (at Thymidylate synthase [1]; in assay [3]) was “inactive” throughout. The same compound returned a Ki at Thymidylate synthase [5] of 44 µM.
For `CN1C(=O)c2cccc(CNc3ccc(C#N)cc3)c2C1=O`, the inhibition result (at Thymidylate synthase [1]; in assay [3]) was “inactive” each time. Further, the Ki at Thymidylate synthase [5] was found to be 51 µM.
With `Cc1cccc2c1C(=O)N(c1cc(C(=O)O)cc(C(=O)O)c1)C2=O`, the inhibition result (at Thymidylate synthase [1]; in assay [3]) was “inactive” throughout. At Thymidylate synthase [5], this compound came in with a Ki of 20 µM.
Consider `COCCCNCc1cccc2c1C(=O)N(C)C2=O`, for which the Ki on Thymidylate synthase [4] was 183 µM; on Thymidylate synthase [5] it was 41 µM.
`Cc1cccc2c1C(=O)N(c1cccc(C(=O)O)c1)C2=O` displayed a Ki on Thymidylate synthase [5] of 69 µM. In assay [3], the inhibition entry is “inactive”.
In the case of `Cc1cccc2c1C(=O)N(c1ccc(C#N)cc1)C2=O`, the inhibition entry at Thymidylate synthase [1] was “inactive”. In addition, the Ki at Thymidylate synthase [4] was found to be 8 µM; in assay [2] it was 31 µM; on Thymidylate synthase [5], 22 µM.
In the case of `CN1C(=O)c2cccc(CNc3ccc(C(=O)O)cn3)c2C1=O`, the inhibition entry (at Thymidylate synthase [1]; in assay [3]) was “inactive” in each case. Besides, on Thymidylate synthase [5], the Ki was 27 µM.
Regarding `Cc1cccc2c1C(=O)N(c1cccc3[nH]ccc13)C2=O`, the inhibition result on Thymidylate synthase [1] is “inactive”. Besides, the Ki is 26 µM at Thymidylate synthase [4] and 25 µM on Thymidylate synthase [5].
In the case of `Cc1cccc2c1C(=O)N(c1ccc(C(=N)N)cc1)C2=O`, the inhibition entry (on Thymidylate synthase [1]; in assay [3]) was “inactive” each time. This compound also yielded an inhibitory constant (Ki) at Thymidylate synthase [5] of 9 µM.
On to `CN1C(=O)c2cccc(CNc3ccc(C(=O)c4ccccc4)cc3)c2C1=O`, for which the inhibition entry (on Thymidylate synthase [1]; in assay [3]) was “inactive” throughout. The Ki came out at 82 µM in assay [2] and 14 µM at Thymidylate synthase [5].
Consider `CN1C(=O)c2cccc(CNc3ccc(S(=O)(=O)O)cc3)c2C1=O`, for which the Ki in assay [2] is 42 µM; on Thymidylate synthase [5], 33 µM. In addition, the inhibition entry in assay [3] was “inactive”.
In the case of `CN1C(=O)c2cccc(CNc3ccc([N+](=O)[O-])c4ccccc34)c2C1=O`, the inhibition entry (on Thymidylate synthase [1]; in assay [3]) was “inactive” each time. The figures for the inhibition constant (Ki) (in assay [2]; on Thymidylate synthase [5]) were 92 µM and 10 µM, respectively.
Consider `CCOC(=O)c1ccc(NCc2cccc3c2C(=O)N(C)C3=O)cc1`, for which the inhibition result at Thymidylate synthase [1] is “inactive”. Moreover, the Ki at Thymidylate synthase [4] stood at 109 µM; on Thymidylate synthase [5], 56 µM.
Taken in the same sequence, the figures for `Cc1cccc2c1C(=O)N(c1cccc(O)c1)C2=O` were “inactive”, 61 µM and 93 µM.
Consider `CN1C(=O)c2cccc(CNCCc3cccs3)c2C1=O`, for which the inhibition result (on Thymidylate synthase [1]; in assay [3]) was “inactive” throughout. This compound had a Ki in assay [2] of 61 µM.
`O=C1OC(c2ccc(O)c(Cl)c2)(c2ccc(O)c(Cl)c2)c2cccc3cccc1c23` came in with a Ki in assay [2] of 0.6 µM.
As for `Cc1cccc2c1C(=O)N(c1ccc(-n3ccnc3)cc1)C2=O`, the Ki at Thymidylate synthase [7] came out at 206 µM; on Thymidylate synthase [4], 33 µM; at Thymidylate synthase [5] it was 34 µM.
In the case of `Cc1cc(N2C(=O)c3cccc(C)c3C2=O)ccc1N1C(=O)c2ccc(Cl)cc2C1=O`, the inhibition result (at Thymidylate synthase [1]; in assay [3]) was “inactive” in each case. Moreover, the inhibition constant (Ki) in assay [2] was found to be 33 µM; on Thymidylate synthase [5], 36 µM.
Regarding `CN1C(=O)c2cccc(CNc3cccc(S(N)(=O)=O)c3)c2C1=O`, the inhibition entry (on Thymidylate synthase [1]; in assay [3]) was “inactive” in each case. Besides, the Ki at Thymidylate synthase [5] amounted to 38 µM.
Turning to `Cc1cccc2c1C(=O)N(c1ccnc(Cl)c1)C2=O`, the inhibition result at Thymidylate synthase [1] is “inactive”. For the same compound, the Ki on Thymidylate synthase [4] was 7 µM; in assay [2], 111 µM; on Thymidylate synthase [5] it was 23 µM.
On to `CC(=O)c1ccc(N2C(=O)c3cccc(C)c3C2=O)cc1`, for which the inhibition entry (at Thymidylate synthase [1]; in assay [3]) was “inactive” each time. The Ki came to 41 µM in assay [2] and 6 µM on Thymidylate synthase [5].
In the case of `Cc1cccc2c1C(=O)N(c1ccc(C(=O)O)c(O)c1)C2=O`, the Ki in assay [2] stood at 36 µM; at Thymidylate synthase [5], 14 µM. Besides, the inhibition result in assay [3] is “inactive”.
With `Cc1cccc2c1C(=O)N(c1ccc(C(=O)NCC(=O)O)cc1)C2=O`, the Ki amounted to 11 µM on Thymidylate synthase [4], 42 µM in assay [2] and 3 µM on Thymidylate synthase [5].

These data come from ChEMBL document CHEMBL1811787, “Identification of the binding modes of N-phenylphthalimides inhibiting bacterial thymidylate synthase through X-ray crystallography screening” (J Med Chem, 2011).
